Results on 18 compounds are retold here after the supplement of paper PMC8967900.

SMILES strings stand for the structures.
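Further: ALL cell lines in 384-well plates, five doses spanning 10,000-fold, each plate scaled between vehicle and 100 µmol/L benzalkonium chloride controls, sDSS an adapted area-under-curve metric.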

The first assay relates to RPMI-8402. Nature of the assay: selective drug sensitivity score (sDSS, relative to normal bone marrow) (sDSS (score)); higher = more potent and effective on the cell line relative to normal bone marrow cells. The note with it: 72 h.
As for `Cn1cc(-c2ccc(F)c(C(F)(F)F)c2)nc1C1CCN(c2ncnc3[nH]ncc23)CC1` (top concentration 10000 nM), the “selective drug sensitivity score” value was -0.14.
In the case of `O=C(Nc1ccc2[nH]nc(-c3ccncc3)c2c1)[C@@H]1CCN(CC(=O)N2CCN(c3ccc(-c4ncccn4)cc3)CC2)C1` (top concentration 10000 nM), the “selective drug sensitivity score” value is -1.64.
Still for that read-out and setting: in the case of `CC(C)(C)c1cc(NC(=O)Nc2ccc(Oc3ccnc4[nH]c(=O)cnc34)cc2F)n(-c2ccccc2)n1` (top concentration 25000 nM) it was -3.18.
For the compound `Nc1ncnc2c1nc(N)n2[C@@H]1O[C@H](CO)[C@@H](O)[C@H]1O` [8-amino-adenosine] (top concentration 50000 nM), the “selective drug sensitivity score” value came out at 0.18.
The same measure, in the same setting: in the case of `CC(C)[C@@H](CS(=O)(=O)C(C)C)N1C(=O)[C@@](C)(CC(=O)O)C[C@H](c2cccc(Cl)c2)[C@H]1c1ccc(Cl)cc1` [AMG-232] (top concentration 10000 nM) it was -9.14; in that of `CC(C)[C@H](C(=O)Nc1ccc(C(=O)NO)cc1)c1ccccc1` [AR-42] (top concentration 10000 nM), 8.18.
`O=C(Nc1c[nH]nc1-c1nc2ccc(CN3CCOCC3)cc2[nH]1)NC1CC1` [AT9283] (top concentration 1000 nM): the “selective drug sensitivity score” value was 4.32.
As to `CCN(CCO)CCCOc1ccc2c(Nc3cc(CC(=O)Nc4cccc(F)c4)[nH]n3)ncnc2c1` [AZD1152-HQPA] (top concentration 1000 nM), the “selective drug sensitivity score” value was 13.
`Cc1[nH]nc(C(F)(F)F)c1Cc1sc2c(c1C(=O)N1C[C@](C)(O)CO1)c(=O)n(C)c(=O)n2C(C)C` [AZD3965] (top concentration 1000 nM): the “selective drug sensitivity score” value was found to be 12.6.

The next assay relates to SEM cells. The description is as above. As to conditions: 72 h.
In the case of `COC12C(COC(N)=O)C3=C(C(=O)C(C)=C(N)C3=O)N1CC1NC12` (stereo in doubt) [Mitomycin_C] (top concentration 10000 nM), the “selective drug sensitivity score” value came to 3.84.
Regarding `Cc1c(-c2c(-c3ccc(F)o3)sc3ncnc(O[C@H](Cc4ccccc4OCc4ccnn4CC(F)(F)F)C(=O)O)c23)ccc(OCCN2CCN(C)CC2)c1Cl` (top concentration 1000 nM), the “selective drug sensitivity score” value is -6.44.
For `Cc1ncc(Cl)cc1NCc1ccc(C(=O)N[C@@H](CC2CCCC2)C(=O)NC2CC2)s1` (top concentration 5000 nM), the “selective drug sensitivity score” value is -0.94.
With `CCn1c(-c2nonc2N)nc2c(C#CC(C)(C)O)ncc(OC[C@H]3CCCNC3)c21` (top concentration 10000 nM), the “selective drug sensitivity score” value stood at 5.28.
With `CN(c1ncccc1CNc1nc(Nc2ccc3c(c2)CC(=O)N3)ncc1C(F)(F)F)S(C)(=O)=O` (top concentration 10000 nM), the “selective drug sensitivity score” value is 7.22.
For `CNc1ncc2cc(-c3cc(NC(=O)NCCC(C)(C)C)c(F)cc3C)c(C)nc2n1` (top concentration 10000 nM), the “selective drug sensitivity score” value turned out to be 5.66.
On to `C[C@@]1(C(=O)Nc2ccc(F)nc2)CCCN1c1nc(Nc2cc(C3CC3)n[nH]2)c2cccn2n1` (top concentration 10000 nM), for which the “selective drug sensitivity score” value turned out to be 8.98.
Take `Cc1nc(Nc2n[nH]c3c2CN(C(=O)N[C@H](CN(C)C)c2ccccc2)C3(C)C)c2sccc2n1` (top concentration 10000 nM): the “selective drug sensitivity score” value was determined as 2.28.
Regarding `Cn1cc(-c2[nH]c3cc(NC(=O)[C@H](N)C4CCCCC4)cc4c3c2C=NNC4=O)cn1` (top concentration 10000 nM), the “selective drug sensitivity score” value worked out at 7.28.
Take `Cn1cc(-c2ccc(F)c(C(F)(F)F)c2)nc1C1CCN(c2ncnc3[nH]ncc23)CC1` (top concentration 10000 nM): the “selective drug sensitivity score” value is -0.14.
Regarding `O=C(Nc1ccc2[nH]nc(-c3ccncc3)c2c1)[C@@H]1CCN(CC(=O)N2CCN(c3ccc(-c4ncccn4)cc3)CC2)C1` (top concentration 10000 nM), the “selective drug sensitivity score” value was -2.64.
Consider `CC(C)(C)c1cc(NC(=O)Nc2ccc(Oc3ccnc4[nH]c(=O)cnc34)cc2F)n(-c2ccccc2)n1` (top concentration 25000 nM), for which the “selective drug sensitivity score” value was 11.4.
On to `Nc1ncnc2c1nc(N)n2[C@@H]1O[C@H](CO)[C@@H](O)[C@H]1O` [8-amino-adenosine] (top concentration 50000 nM), for which the “selective drug sensitivity score” value was determined as 5.08.
With `CC(C)[C@@H](CS(=O)(=O)C(C)C)N1C(=O)[C@@](C)(CC(=O)O)C[C@H](c2cccc(Cl)c2)[C@H]1c1ccc(Cl)cc1` [AMG-232] (top concentration 10000 nM), the “selective drug sensitivity score” value is -8.34.
Regarding `CC(C)[C@H](C(=O)Nc1ccc(C(=O)NO)cc1)c1ccccc1` [AR-42] (top concentration 10000 nM), the “selective drug sensitivity score” value worked out at 9.08.
On the same count and under the same terms, in the case of `O=C(Nc1c[nH]nc1-c1nc2ccc(CN3CCOCC3)cc2[nH]1)NC1CC1` [AT9283] (top concentration 1000 nM) it was 14.7.
For `CCN(CCO)CCCOc1ccc2c(Nc3cc(CC(=O)Nc4cccc(F)c4)[nH]n3)ncnc2c1` [AZD1152-HQPA] (top concentration 1000 nM), the “selective drug sensitivity score” value was 15.7.
On the same count and under the same terms, the figure for `Cc1[nH]nc(C(F)(F)F)c1Cc1sc2c(c1C(=O)N1C[C@](C)(O)CO1)c(=O)n(C)c(=O)n2C(C)C` [AZD3965] (top concentration 1000 nM) is 0.

The test system of another assay is TMD5. The assay is described as above. The note with it: 72 h.
Consider `COC12C(COC(N)=O)C3=C(C(=O)C(C)=C(N)C3=O)N1CC1NC12` (stereo in doubt) [Mitomycin_C] (top concentration 10000 nM), for which the “selective drug sensitivity score” value is -1.96.
In the case of `Cc1c(-c2c(-c3ccc(F)o3)sc3ncnc(O[C@H](Cc4ccccc4OCc4ccnn4CC(F)(F)F)C(=O)O)c23)ccc(OCCN2CCN(C)CC2)c1Cl` (top concentration 1000 nM), the “selective drug sensitivity score” value was -7.74.
Take `Cc1ncc(Cl)cc1NCc1ccc(C(=O)N[C@@H](CC2CCCC2)C(=O)NC2CC2)s1` (top concentration 5000 nM): the “selective drug sensitivity score” value is -0.94.
Turning to `CCn1c(-c2nonc2N)nc2c(C#CC(C)(C)O)ncc(OC[C@H]3CCCNC3)c21` (top concentration 10000 nM), the “selective drug sensitivity score” value is -1.12.
Still for that read-out and setting: the figure for `CN(c1ncccc1CNc1nc(Nc2ccc3c(c2)CC(=O)N3)ncc1C(F)(F)F)S(C)(=O)=O` (top concentration 10000 nM) is -3.28; for `CNc1ncc2cc(-c3cc(NC(=O)NCCC(C)(C)C)c(F)cc3C)c(C)nc2n1` (top concentration 10000 nM) it is 7.86; for `C[C@@]1(C(=O)Nc2ccc(F)nc2)CCCN1c1nc(Nc2cc(C3CC3)n[nH]2)c2cccn2n1` (top concentration 10000 nM) it is -0.12.
`Cc1nc(Nc2n[nH]c3c2CN(C(=O)N[C@H](CN(C)C)c2ccccc2)C3(C)C)c2sccc2n1` (top concentration 10000 nM): the “selective drug sensitivity score” value is -7.92.
Still for that read-out and setting: the figure for `Cn1cc(-c2[nH]c3cc(NC(=O)[C@H](N)C4CCCCC4)cc4c3c2C=NNC4=O)cn1` (top concentration 10000 nM) is -0.12.
For the compound `Cn1cc(-c2ccc(F)c(C(F)(F)F)c2)nc1C1CCN(c2ncnc3[nH]ncc23)CC1` (top concentration 10000 nM), the “selective drug sensitivity score” value was -0.14.
For `O=C(Nc1ccc2[nH]nc(-c3ccncc3)c2c1)[C@@H]1CCN(CC(=O)N2CCN(c3ccc(-c4ncccn4)cc3)CC2)C1` (top concentration 10000 nM), the “selective drug sensitivity score” value was -0.34.
For `CC(C)(C)c1cc(NC(=O)Nc2ccc(Oc3ccnc4[nH]c(=O)cnc34)cc2F)n(-c2ccccc2)n1` (top concentration 25000 nM), the “selective drug sensitivity score” value stood at 2.32.
As for `Nc1ncnc2c1nc(N)n2[C@@H]1O[C@H](CO)[C@@H](O)[C@H]1O` [8-amino-adenosine] (top concentration 50000 nM), the “selective drug sensitivity score” value worked out at 2.68.
Still for that read-out and setting: in the case of `CC(C)[C@@H](CS(=O)(=O)C(C)C)N1C(=O)[C@@](C)(CC(=O)O)C[C@H](c2cccc(Cl)c2)[C@H]1c1ccc(Cl)cc1` [AMG-232] (top concentration 10000 nM) it was 6.76.
As to `CC(C)[C@H](C(=O)Nc1ccc(C(=O)NO)cc1)c1ccccc1` [AR-42] (top concentration 10000 nM), the “selective drug sensitivity score” value is 5.28.
On the same count and under the same terms, in the case of `O=C(Nc1c[nH]nc1-c1nc2ccc(CN3CCOCC3)cc2[nH]1)NC1CC1` [AT9283] (top concentration 1000 nM) it was 7.32; in that of `CCN(CCO)CCCOc1ccc2c(Nc3cc(CC(=O)Nc4cccc(F)c4)[nH]n3)ncnc2c1` [AZD1152-HQPA] (top concentration 1000 nM), 9.14; in that of `Cc1[nH]nc(C(F)(F)F)c1Cc1sc2c(c1C(=O)N1C[C@](C)(O)CO1)c(=O)n(C)c(=O)n2C(C)C` [AZD3965] (top concentration 1000 nM), 2.6.
